Results on six molecules are retold here after patent publication US12390446B2 (RESEARCH TRIANGLE INSTITUTE, priority 2017, dated 2025).

Converted amounts (≈) assume the structure as drawn. “And” between values parts separate entries of the source, which are not always exact repeats. Equal entries are not always repeated. Where two headings read alike, the source gives them in different places.

For series [1], the target named is T1, NPFF1 receptor (human NPFFR1 in CHO-RD-HGA16 cells) (Homo sapiens, UniProt Q9GZQ6).
T1 construct: expressed in transfected cells
T1 sequence (Q9GZQ6 whole entry): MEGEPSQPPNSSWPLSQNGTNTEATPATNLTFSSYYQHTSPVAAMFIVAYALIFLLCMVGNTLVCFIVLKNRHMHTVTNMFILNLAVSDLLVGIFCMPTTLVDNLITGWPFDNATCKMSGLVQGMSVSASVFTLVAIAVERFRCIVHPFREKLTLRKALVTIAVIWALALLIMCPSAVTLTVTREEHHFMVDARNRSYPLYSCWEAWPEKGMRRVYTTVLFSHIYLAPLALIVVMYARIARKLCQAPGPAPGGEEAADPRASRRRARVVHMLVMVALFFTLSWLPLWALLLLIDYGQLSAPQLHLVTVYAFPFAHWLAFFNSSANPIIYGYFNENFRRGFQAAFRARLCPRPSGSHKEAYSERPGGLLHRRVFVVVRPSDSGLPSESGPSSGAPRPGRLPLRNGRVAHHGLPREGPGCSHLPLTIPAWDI
Put plainly: Calcium mobilization functional Ke assay, NPFF1. Format: cell-based. The conditions noted are these: for preference / selectivity for NPFF1 over NPFF2: from calcium mobilization Ke values.

Series [2] concerns the target T2, NPFF2 receptor (human NPFFR2 in CHO-RD-HGA16 cells) (Homo sapiens, UniProt Q9Y5X5).
T2 construct: expressed in transfected cells
Put plainly: Calcium mobilization functional Ke assay, NPFF2. It counts as cell-based.

Series [3] has as its target NPFF1 receptor (human NPFFR1-CHO cells) (Homo sapiens, UniProt Q9GZQ6). The series can be described thus: Lance cAMP functional Ke assay, NPFF1. The conditions noted are these: for Kb: Table 5. It counts as cell-based. How it is done:
(§1) Kinetic solubility and bidirectional MDCK-MDR1 permeability assays of the compounds were performed by Paraza Pharma Inc. (Montreal, Canada) according to their standard protocols.
(§2) cAMP assay. Stable human NPFFR1-CHO (ES-491-C) and NPFFR2-CHO (ES-490-C) cell lines were purchased from PerkinElmer and used with the Lance@ Ultra kit (TRF0262) to detect cAMP accumulation in low volume 96-well plates. Stimulation buffer containing 1× HBSS, 5 mM HEPES, 0.1% BSA stabilizer, and 0.5 mM IBMX was prepared and titrated to 7.4 at room temperature.
(§3) A single concentration of each test compound was prepared at 4× the desired final concentration in 2% DMSO/stimulation buffer and 5 μL was added to the assay plate.
(§4) Cells were lifted with versene and spun at 270 g for 10 minutes. The cell pellet was resuspended in stimulation buffer and 4,000 cells (10 μL) were added to each well. After incubating for 30 min at RT, Eu-cAMP tracer and uLIGHT-anti-cAMP working solutions were added per the manufacturer's instructions. After incubation at RT for 1 hour, the TR-FRET signal (ex 337 nm) was read on a CLARIOstar multimode plate reader (BMG Biotech, Cary NC).
(§5) Fluorescence values at 665 nm were plotted against the log of compound concentration using a nonlinear regression analysis to generate EC50 values (GraphPad Prism, GraphPad Software, Inc., San Diego CA). Ke values were calculated using the same equation as described in the calcium mobilization methods.

Series [4] deals with NPFF2 receptor (human NPFFR2-CHO cells) (Homo sapiens, UniProt Q9Y5X5). Put plainly: Lance cAMP functional Ke assay, NPFF2. It counts as cell-based. The conditions noted are these: for Kb: Table 5. How it is done:
as §1, §2, §3, §4, §5

Another series deals with MDCK-MDR1 cells. The series can be described thus: Bidirectional MDCK-MDR1 permeability assay. It counts as in vitro ADME. How it is done:
as §1
Bidirectional MDCK-MDR1 permeability assay. MDCK-mdr1 cells at passage 5 were seeded onto permeable polycarbonate supports in 12-well Costar@ Transwell® plates and allowed to grow and differentiate for 3 days. On day 3, culture medium (DMEM supplemented with 10% FBS) was removed from both sides of the transwell inserts and cells were rinsed with warm HBSS. After the rinse step, the chambers were filled with warm transport buffer (HBSS containing 10 mM HEPES, 0.25% BSA, pH 7.4) and the plates were incubated at 37° C. for 30 min prior to TEER (Trans Epithelial Electric Resistance) measurements.
The buffer in the donor chamber (apical side for A-to-B assay, basolateral side for B-to-A assay) was removed and replaced with the working solution (10 μM test article in transport buffer). The plates were then placed at 37° C. under light agitation. At designated time points (30, 60 and 90 min), an aliquot of transport buffer from the receiver chamber was removed and replenished with fresh transport buffer. Samples were quenched with ice-cold ACN containing internal standard and then centrifuged to pellet protein. Resulting supernatants are further diluted with 50/50 ACN/H2O(H2O only for Atenolol) and submitted for LC-MS/MS analysis. Reported apparent permeability (Papp) values were calculated from single determination. Atenolol and propranolol were tested as low and […] permeability references.
The apparent permeability (Papp, measured in cm/s) of a compound is determined according to the following formula:
[formula] • dQ/dt is the net rate of appearance in the receiver compartment • A is the area of the Transwell measured in cm^2 (1.12 cm^2) • Ci is the initial concentration of compound added to the donor chamber • 60 is the conversion factor for minutes to seconds. In Vivo Pharmacology.

Series [5] has as its target T3, NPFF1 receptor (CHO-hNPFFR1 membranes) (Homo sapiens, UniProt Q9GZQ6).
T3 construct: purchased PerkinElmer RBHNF1M400UA; host or cells: CHO cell membranes
Put plainly: Radioligand binding assay, [125I]NPFF, NPFF1. The conditions noted are these: Table 5; [125I]NPFF displacement. Here is the method: (§6) Radioligand binding assay. Binding assays were performed according to PerkinElmer's protocol in a final volume of 500 μL of assay buffer (50 mM Tris-HCl, 1 mM MgCl2, 60 mM NaCl, 0.5% BSA, pH 7.4). […] After incubating at 27° C. for 120 minutes, the binding assay was terminated by vacuum filtration onto Unifilter GF/C glass-fiber filters (pre-soaked in 0.1% PEI) using a Brandel (Gaithersburg, MD, USA) 96-well harvester, followed by three washes with ice-cold wash buffer (50 mM Tris-HCl, 0.1% BSA, pH 7.4). The filter plate was dried for 1 hr at 55° C. Microscint 20 (50 μL) was added to each well and filter-bound radioactivity was counted on a Packard TopCount NXT microplate scintillation and luminescence counter.
(§7) Data were fit to a one site (fit Ki) competitive binding model, log EC50=log(10^log Ki*(1+RadioligandNM/HotKdNM)), to generate Ki values for the test compounds using GraphPad Prism (GraphPad Software, Inc., San Diego CA).

Series [6] addresses T4, NPFF2 receptor (CHO-hNPFFR2 membranes) (Homo sapiens, UniProt Q9Y5X5).
T4 construct: purchased PerkinElmer RBHNF2M400UA; host or cells: CHO cell membranes
The series can be described thus: Radioligand binding assay, [125I]NPFF, NPFF2. The conditions noted are these: Table 5; [125I]NPFF displacement. How it is done: as §6, §7

The nature of a further series: Kinetic solubility assay. It counts as physicochemical. Here is the method: as §1
Kinetic solubility assay. A 10 μL of test compound stock solution (10 mM DMSO) was combined with 490 μL of PBS (potassium phosphate monobasic 1 mM, sodium phosphate dibasic 3 mM and sodium chloride 155 mM buffer). The solution was agitated on a VX-2500 multi-tube vortexer (VWR) for 2 hours at room temperature. Following agitation, the sample was filtrated on a glass-fiber filter (1 μm) and the eluate was diluted 200-fold with a mixture of acetonitrile: water (1:1). On each experimental occasion, nicardipine and imipramine were assessed as reference compounds for low and high solubility, respectively. All samples were assessed in triplicate and analyzed by LC-MS/MS using electrospray ionization against standards prepared in the same matrix.

The subject of the next series is Sprague-Dawley rats. Put plainly: Fentanyl-induced hyperalgesia model in rats (von Frey paw withdrawal threshold). Format: in vivo, rat. The conditions noted are these: day 1 after fentanyl, i.p., cumulative doses 3.2-32 mg/kg.
[7] abbreviates: Table 3, mean ± SEM, read-out: NPFF1 Ke.
Where [8] appears, read: Table 3, mean ± SEM, read-out: NPFF2 Ke.
Where [9] appears, read: Table 1, mean ± SEM, apparent dissociation constant vs NPFF, read-out: NPFF1 Ke.
Setting [10] is: calcium mobilization assay, read-out: NPFF1 Ke.
[11] abbreviates: Table 6, MDCK-MDR1, 10 μM test article.

T2 sequence (Q9Y5X5 whole entry): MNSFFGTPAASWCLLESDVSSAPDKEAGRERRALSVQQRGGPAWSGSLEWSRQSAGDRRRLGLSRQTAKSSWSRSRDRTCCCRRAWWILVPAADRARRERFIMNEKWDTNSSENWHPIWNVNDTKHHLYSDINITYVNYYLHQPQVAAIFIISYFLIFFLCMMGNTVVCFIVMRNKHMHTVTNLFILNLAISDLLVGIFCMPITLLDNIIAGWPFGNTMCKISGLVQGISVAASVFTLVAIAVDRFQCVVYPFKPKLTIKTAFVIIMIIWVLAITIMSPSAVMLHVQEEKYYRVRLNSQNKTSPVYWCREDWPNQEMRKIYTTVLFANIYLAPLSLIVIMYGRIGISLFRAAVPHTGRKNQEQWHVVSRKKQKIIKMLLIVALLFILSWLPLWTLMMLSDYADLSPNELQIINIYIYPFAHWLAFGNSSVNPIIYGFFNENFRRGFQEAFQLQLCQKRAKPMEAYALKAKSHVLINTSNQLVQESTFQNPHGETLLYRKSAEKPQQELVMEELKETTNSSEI
T4 sequence (Q9Y5X5 whole entry): as above
Sequence of NPFF2 receptor (human NPFFR2-CHO cells) (Q9Y5X5 whole entry): as above
T3 sequence (Q9GZQ6 whole entry): as the sequence (Q9GZQ6 whole entry) above
Sequence of NPFF1 receptor (human NPFFR1-CHO cells) (Q9GZQ6 whole entry): as above

Consider `O=C(NCCc1ccc([N+](=O)[O-])cc1)[C@@H]1C[C@H](NCc2ccc(Cl)cc2)CN1Cc1ccccc1Cl` [Compound 63, (2S,4S)-1-[(2-Chlorophenyl)methyl]-4-{[(4-chlorophenyl)methyl]amino}-N-[2-(4-nitrophenyl)ethyl]pyrrolidine-2-carboxamide], for which the Kb in [1] (setting [7]) was found to be 680 ± 180 nM; in series [1] (Table 5, read-out: Calcium mobilization assay Ke NPFF1) it was 510 ± 180 nM; in series [2] (setting [8]) it was 1.86 µM; in series [3], 1550 nM; in series [4] it was 1760 nM.
Consider `O=C(NCCc1ccc([N+](=O)[O-])cc1)[C@@H]1C[C@H](NCc2ccc(F)cc2)CN1Cc1ccccc1Cl` [Compound 64, (2S,4S)-1-[(2-Chlorophenyl)methyl]-4-{[(4-fluorophenyl)methyl]amino}-N-[2-(4-nitrophenyl)ethyl]pyrrolidine-2-carboxamide], for which the Kb in series [1] (setting [7]) is 960 ± 690 nM; in [2] (setting [8]), > 10 µM; in [2] (Table 5, read-out: Calcium mobilization assay Ke NPFF2), > 10 µM; in [3], 1440 nM; in [4], 960 nM. For the same molecule, in [1], the “preference / selectivity for NPFF1 over NPFF2” value is recorded as “more than 10 fold”.
Turning to `CCCCCNC(=O)[C@@H]1C[C@H](NCc2ccc(OC)cc2)CN1Cc1ccccc1Cl` [Compound 16, (2S,4S)-1-[(2-Chlorophenyl)methyl]-4-{[(4-methoxyphenyl)methyl]amino}-N-pentylpyrrolidine-2-carboxamide], the “Hill slope of NPFF + compound curve, calcium mobilization, NPFF1 cells” value in series [1] is recorded as 1.7. For the same molecule, the Kb in series [1] (setting [9]) came out at 720 ± 10 nM; in series [1] (setting [10]) it was 720 nM; in series [2] (Table 1, mean ± SEM, apparent dissociation constant vs NPFF, read-out: NPFF2 Ke), 3.09 µM; in [3], 340 ± 80 nM; in [4], 2150 nM. Moreover, the “preference / selectivity for NPFF1 over NPFF2” value in series [1] is recorded as > 4 fold. Further, the “BBB permeability” value with MDCK-MDR1 cells (MDCK-MDR1) is “moderate”. The “rate B to A” value in the series on MDCK-MDR1 cells (MDCK-MDR1) was determined as 6.7e-06 cm/s. Further, in the series with MDCK-MDR1 cells (MDCK-MDR1), the “rate apical (A) to basolateral (B)” value came out at 7.6e-06 cm/s. For the same molecule, the “Papp A-to-B” value in the series on MDCK-MDR1 cells (setting [11]) was 7.6 10^−6 cm/sec. Besides, the “Papp B-to-A” value in the series with MDCK-MDR1 cells (setting [11]) is listed as 6.7 10^−6 cm/sec. The Efflux ratio in the series on MDCK-MDR1 cells (Table 6, PB→A/PA→B) was determined as 0.9. In addition, the “Pgp substrate” value in the series with MDCK-MDR1 cells (from efflux ratio) was “not Pgp substrates”. In addition, in series [2], the “Hill slope of NPFF + compound curve, calcium mobilization, NPFF2 cells” value is recorded as 1.1. Moreover, the “NPFF2 Ke” value in series [2] (calcium mobilization assay) is recorded as 3,090 nM. The figures for the Ki in [5] and in [6] were 890 ± 50 nM and 1440 nM, respectively. Also, the “solubility” value in “Kinetic solubility assay” was “good and moderate”; in “Kinetic solubility assay” (Table 6, kinetic solubility in PBS, free base, Mean ± % CV), 146.8 ± 6.9 µM (≈ 65.2 µg/mL). This molecule showed a kinetic solubility in “Kinetic solubility assay” (Mean±% CV, free base) of 146.8 ± 6.9 µM (≈ 65.2 µg/mL). Moreover, in the series with Sprague-Dawley rats, the “effect on PWT” value was “dose-dependently increased PWT”. In addition, the “Hill slope of NPFF + compound curve, cAMP assay, NPFF1 cells” value in series [3] is listed as 1.3. In addition, the “Hill slope of NPFF + compound curve, cAMP assay, NPFF2 cells” value in [4] is 1.3.
With `COc1ccc(CCNC(=O)[C@@H]2C[C@H](NCc3ccc(OC)cc3)CN2Cc2ccccc2Cl)cc1` [Compound 26, (2S,4S)-1-[(2-Chlorophenyl)methyl]-N-[2-(4-methoxyphenyl)ethyl]-4-{[(4-methoxyphenyl)methyl]amino}pyrrolidine-2-carboxamide], the Kb in series [1] (setting [9]) amounted to 670 ± 60 nM; in [1] (setting [10]) it was 670 nM; in [2] (Table 1, footnote c: pre-incubation of antagonist and test compound 45 min or 1 hr, read-out: NPFF2 Ke), 1.75 µM; in series [3] (footnote c: pre-incubation of antagonist and receptor 1 hour) it was 570 ± 150 nM; in [4], 2560 nM. In addition, the Ki worked out at 920 ± 30 nM in [5] and 1460 nM in series [6].
As for `COc1ccc(CN[C@H]2C[C@@H](C(=O)NCCc3ccc(F)c(F)c3)N(Cc3ccccc3Cl)C2)cc1` [Compound 34, (2S,4S)-1-[(2-Chlorophenyl)methyl]-N-[2-(3,4-difluorophenyl)ethyl]-4-{[(4-methoxyphenyl)methyl]amino}pyrrolidine-2-carboxamide], the Kb stood at 610 ± 130 nM in series [1] (setting [9]), 610 nM in [1] (setting [10]), 570 ± 170 nM in series [3] and 2160 nM in [4]. Also, the figures for the Ki in series [5] and in series [6] were 560 ± 40 nM and 1490 nM, respectively.
Take `COc1ccc(CN[C@H]2C[C@@H](C(=O)NCCc3ccccc3)N(Cc3ccccc3Cl)C2)cc1` [Compound 24, (2S,4S)-1-[(2-Chlorophenyl)methyl]-4-{[(4-methoxyphenyl)methyl]amino}-N-(2-phenylethyl)pyrrolidine-2-carboxamide]: the Kb in series [1] (setting [9]) was 850 ± 140 nM; in series [1] (setting [10]), 850 nM; in series [2] (read-out: Calcium mobilization assay Ke NPFF2), > 10 µM; in [2] (read-out: NPFF2 Ke), > 10 µM and 9.39 µM; in series [3] it was 770 ± 120 nM; in series [4], 3790 nM. The “NPFF1 Ke” value in [1] (Table 4, mean ± SEM) is listed as 850 ± 140 nM. Further, in series [1] (Table 5), the “Calcium mobilization assay Ke NPFF1” value stood at 850 ± 140 nM. The Ki in series [5] was found to be 710 ± 20 nM; in [6], 1230 nM.
